Laboratory results as given in patent publication US11926614B2, “1,2,4-triazole derivatives as tankyrase inhibitors” (priority 2018, dated 2024).
Where two headings read alike, the source gives them in different places.

Assays:
TNKS2 = TNKS2 (Homo sapiens (Human), UniProt Q9H2K2); test: Biochemical IC50 TNKS2
Source text: (§1) XLfit (idbs) was used to determine the IC50-values in inhibition experiments. The following formula was chosen to fit the data points (Langmuir Binding Isotherm): fit=((A+(B*x))+4(C−B)*(1−exp((−1*D)*x)))/D)), res=(y−fit)

HEK293 = test: Cellular IC50 HEK293; format: cell-based
Source text: as §1

[1] = read-out: Biochemical IC50 TNKS2
[2] = Homo sapiens, HEK293, HEK293; read-out: Cellular IC50 HEK293
[3] = Homo sapiens, HEK293, read-out: Cellular IC50 HEK293

Sequence of TNKS2 (Q9H2K2 whole entry): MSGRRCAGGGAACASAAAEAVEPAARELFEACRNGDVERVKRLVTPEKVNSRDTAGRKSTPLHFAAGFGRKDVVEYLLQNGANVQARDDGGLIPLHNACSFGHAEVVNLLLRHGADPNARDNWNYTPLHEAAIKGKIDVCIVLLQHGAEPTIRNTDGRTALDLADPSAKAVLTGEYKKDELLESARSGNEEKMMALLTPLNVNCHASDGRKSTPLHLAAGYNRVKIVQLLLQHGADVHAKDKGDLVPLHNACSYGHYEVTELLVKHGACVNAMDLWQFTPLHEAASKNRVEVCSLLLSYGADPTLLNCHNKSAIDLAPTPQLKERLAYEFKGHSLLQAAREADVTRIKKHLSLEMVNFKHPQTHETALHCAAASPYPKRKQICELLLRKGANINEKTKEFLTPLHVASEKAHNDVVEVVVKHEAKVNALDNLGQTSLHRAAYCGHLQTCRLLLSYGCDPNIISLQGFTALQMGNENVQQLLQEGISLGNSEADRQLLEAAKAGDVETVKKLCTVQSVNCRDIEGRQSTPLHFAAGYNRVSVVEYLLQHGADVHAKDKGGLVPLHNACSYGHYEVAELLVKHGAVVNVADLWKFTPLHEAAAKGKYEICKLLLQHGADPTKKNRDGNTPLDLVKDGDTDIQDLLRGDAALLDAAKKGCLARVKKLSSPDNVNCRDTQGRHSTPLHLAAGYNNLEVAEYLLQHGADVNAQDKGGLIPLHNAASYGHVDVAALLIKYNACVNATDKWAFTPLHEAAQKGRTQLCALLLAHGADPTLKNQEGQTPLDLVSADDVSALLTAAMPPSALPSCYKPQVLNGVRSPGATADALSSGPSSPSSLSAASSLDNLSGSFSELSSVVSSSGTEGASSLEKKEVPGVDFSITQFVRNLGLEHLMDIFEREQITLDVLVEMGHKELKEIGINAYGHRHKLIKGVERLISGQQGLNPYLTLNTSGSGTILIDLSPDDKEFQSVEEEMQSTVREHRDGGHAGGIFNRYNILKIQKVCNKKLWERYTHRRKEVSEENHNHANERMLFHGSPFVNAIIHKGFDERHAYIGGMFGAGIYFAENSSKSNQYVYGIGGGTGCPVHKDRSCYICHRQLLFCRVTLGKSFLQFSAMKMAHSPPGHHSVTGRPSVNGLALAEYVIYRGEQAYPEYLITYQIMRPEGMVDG

Structure (SMILES)	IC50 (TNKS2; [1]) [µM]	IC50 (HEK293; [2]) [µM]	IC50 (TNKS2) [µM]	IC50 (HEK293; [3]) [µM]	IC50 (HEK293; Homo sapiens, HEK293; read-out: Cellular IC50 HEK293) [µM]
O=C(N[C@H]1C[C@H](c2nnc(-c3nccs3)n2-c2ccccc2F)C1)c1ccc(F)cc1 [Example 28, 4-fluoro-N-((1S,3r)-3-(4-(2-fluorophenyl)-5-(thiazol-2-yl)-4H-1,2,4-triazol-3-yl)cyclobutyl)benzamide]	0.051	0.24	–	–	–
[2H]C([2H])([2H])C([2H])([2H])Oc1ccc(-c2nnc([C@H]3C[C@H](NC(=O)c4cccc5cccnc45)C3)n2-c2ccccc2F)nc1 [Example 95, N-((1S,3r)-3-(5-(5-(ethoxy-d5)pyridin-2-yl)-4-(2-fluorophenyl)-4H-1,2,4-triazol-3-yl)cyclobutyl)quinoline-8-carboxamide]	–	0.00048	0.0035	–	–
CCOc1ccc(-c2nnc([C@H]3C[C@H](NC(=O)c4ccnc5cccnc45)C3)n2-c2cccnc2)nc1 [Example 162, N-((1r,3r)-3-(5-(5-ethoxypyridin-2-yl)-4-(pyridin-3-yl)-4H-1,2,4-triazol-3-yl)cyclobutyl)-1,5-naphthyridine-4-carboxamide]	0.0045	–	–	0.016	–
O=C(N[C@H]1C[C@H](c2nnc(-c3nccs3)n2-c2ccncc2)C1)c1cccc2cccnc12 [Example 146, N-((1r,3r)-3-(4-(pyridin-4-yl)-5-(thiazol-2-yl)-4H-1,2,4-triazol-3-yl)cyclobutyl)quinoline-8-carboxamide]	0.016	0.08	–	–	–
O=C(N[C@H]1C[C@H](c2nnc(-c3ccncn3)n2-c2ccccc2Cl)C1)c1cccnc1 [Example 9, N-((1S,3r)-3-(4-(2-chlorophenyl)-5-(pyrimidin-4-yl)-4H-1,2,4-triazol-3-yl)cyclobutyl)nicotinamide]	0.018	0.05	–	–	–
O=C(N[C@H]1C[C@H](c2nnc(-c3nccs3)n2-c2ccccc2Cl)C1)c1ccccn1 [Example 42, N-((1S,3r)-3-(4-(2-chlorophenyl)-5-(thiazol-2-yl)-4H-1,2,4-triazol-3-yl)cyclobutyl)picolinamide]	0.0059	0.02	–	–	–
Cc1cccc(-c2nnc([C@H]3C[C@H](NC(=O)c4cc(F)cc5nccnc45)C3)n2-c2ccccc2F)n1 [Example 202, 7-fluoro-N-((1S,3r)-3-(4-(2-fluorophenyl)-5-(6-methylpyridin-2-yl)-4H-1,2,4-triazol-3-yl)cyclobutyl)quinoxaline-5-carboxamide]	0.0016	–	–	0.000169	–
CCOc1ccc(-c2nnc([C@H]3C[C@H](NC(=O)c4ccc(F)cc4)C3)n2-c2ccccc2)nc1 [Example 70, N-((1r,3r)-3-(5-(5-ethoxypyridin-2-yl)-4-phenyl-4H-1,2,4-triazol-3-yl)cyclobutyl)-4-fluorobenzamide]	0.0085	0.048	–	–	–
CCOc1ccc(-c2nnc([C@H]3C[C@H](NC(=O)c4cccc5cccnc45)C3)n2-c2cccc(Cl)c2)nc1 [Example 139, N-((1r,3r)-3-(4-(3-chlorophenyl)-5-(5-ethoxypyridin-2-yl)-4H-1,2,4-triazol-3-yl)cyclobutyl)quinoline-8-carboxamide]	0.0087	0.004	–	–	–
CCOc1ccc(-c2nnc([C@H]3C[C@H](NC(=O)c4ccc5ncccc5n4)C3)n2-c2cccnc2)nc1 [Example 163, N-((1r,3r)-3-(5-(5-ethoxypyridin-2-yl)-4-(pyridin-3-yl)-4H-1,2,4-triazol-3-yl)cyclobutyl)-1,5-naphthyridine-2-carboxamide]	0.014	0.071	–	–	–
O=C(N[C@H]1C[C@H](c2nnc(-c3ccncn3)n2-c2ccccc2Cl)C1)c1ccc(F)cn1 [Example 17, N-((1S,3r)-3-(4-(2-chlorophenyl)-5-(pyrimidin-4-yl)-4H-1,2,4-triazol-3-yl)cyclobutyl)-5-fluoropicolinamide]	0.0027	0.0024	–	–	–
CCOc1ccc(-c2nnc([C@H]3C[C@H](NC(=O)c4cccc5cc[nH]c45)C3)n2-c2ccccc2F)nc1 [Example 115, N-((1S,3r)-3-(5-(5-ethoxypyridin-2-yl)-4-(2-fluorophenyl)-4H-1,2,4-triazol-3-yl)cyclobutyl)-1H-indole-7-carboxamide]	0.01	0.057	–	–	–
O=C(N[C@H]1C[C@H](c2nnc(-c3ccc(OC(F)F)cn3)n2-c2ccccc2F)C1)c1cc(F)cc2nccnc12 [Example 186, N-((1S,3r)-3-(5-(5-(difluoromethoxy)pyridin-2-yl)-4-(2-fluorophenyl)-4H-1,2,4-triazol-3-yl)cyclobutyl)-7-fluoroquinoxaline-5-carboxamide]	0.0024	–	–	0.000508	–
CCOc1ccc(-c2nnc([C@H]3C[C@H](NC(=O)c4ccc(F)cn4)C3)n2-c2ccccc2F)nc1 [Example 59, N-((1S,3r)-3-(5-(5-ethoxypyridin-2-yl)-4-(2-fluorophenyl)-4H-1,2,4-triazol-3-yl)cyclobutyl)-5-fluoropicolinamide]	0.0024	0.0095	–	–	–
CCOc1ccc(-c2nnc([C@H]3C[C@H](NC(=O)c4cccc(C(C)O)n4)C3)n2-c2ccccc2F)nc1 (stereo partly drawn) [Example 128, N-((1R,3r)-3-(5-(5-ethoxypyridin-2-yl)-4-(2-fluorophenyl)-4H-1,2,4-triazol-3-yl)cyclobutyl)-6-(1-hydroxyethyl)picolinamide]	0.037	0.23	–	–	–
N#Cc1cccc(C(=O)N[C@H]2C[C@H](c3nnc(-c4ccncn4)n3-c3ccccc3Cl)C2)c1 [Example 132, N-((1R,3r)-3-(4-(2-chlorophenyl)-5-(pyrimidin-4-yl)-4H-1,2,4-triazol-3-yl)cyclobutyl)-3-cyanobenzamide]	0.0066	0.039	–	–	–
O=C(N[C@H]1C[C@H](c2nnc(-c3ccncn3)n2-c2ccccc2Cl)C1)c1ccnc2ccccc12 [Example 6, N-((1S,3r)-3-(4-(2-chlorophenyl)-5-(pyrimidin-4-yl)-4H-1,2,4-triazol-3-yl)cyclobutyl)quinoline-4-carboxamide]	0.68	1.3	–	–	–
O=C(N[C@H]1C[C@H](c2nnc(-c3nccs3)n2-c2ccccc2)C1)c1ccccn1 [Example 32, N-((1r,3r)-3-(4-phenyl-5-(thiazol-2-yl)-4H-1,2,4-triazol-3-yl)cyclobutyl)picolinamide]	0.049	0.229	–	–	–
CCOc1ccc(-c2nnc([C@H]3C[C@H](NC(=O)c4ccc(C(C)(C)O)cn4)C3)n2-c2ccccc2F)nc1 [Example 101, N-((1S,3r)-3-(5-(5-ethoxypyridin-2-yl)-4-(2-fluorophenyl)-4H-1,2,4-triazol-3-yl)cyclobutyl)-5-(2-hydroxypropan-2-yl)picolinamide]	0.022	0.096	–	–	–
CCOc1ccc(-c2nnc([C@H]3C[C@H](NC(=O)c4cn5ccccc5n4)C3)n2-c2ccccc2F)nc1 [Example 118, N-((1S,3r)-3-(5-(5-ethoxypyridin-2-yl)-4-(2-fluorophenyl)-4H-1,2,4-triazol-3-yl)cyclobutyl)imidazo[1,2-a]pyridine-2-carboxamide]	0.012	0.1	–	–	–
CCOc1ccc(-c2nnc([C@H]3C[C@H](NC(=O)c4cc5sccc5[nH]4)C3)n2-c2ccccc2F)nc1 [Example 149, N-((1S,3r)-3-(5-(5-ethoxypyridin-2-yl)-4-(2-fluorophenyl)-4H-1,2,4-triazol-3-yl)cyclobutyl)-4H-thieno[3,2-b]pyrrole-5-carboxamide]	0.0074	0.027	–	–	–
CCOc1ccc(-c2nnc([C@H]3C[C@H](NC(=O)c4ccnc5cccnc45)C3)n2-c2ccccc2F)nc1 [Example 55, N-((1S,3r)-3-(5-(5-ethoxypyridin-2-yl)-4-(2-fluorophenyl)-4H-1,2,4-triazol-3-yl)cyclobutyl)-1,5-naphthyridine-4-carboxamide]	0.002	–	–	–	0.000814
O=C(N[C@H]1C[C@H](c2nnc(-c3ccccn3)n2-c2ccccc2F)C1)c1cc(F)cc2nccnc12 [Example 194, 7-fluoro-N-((1S,3r)-3-(4-(2-fluorophenyl)-5-(pyridin-2-yl)-4H-1,2,4-triazol-3-yl)cyclobutyl)quinoxaline-5-carboxamide]	0.002	–	–	0.000794	–
CCOc1ccc(-c2nnc([C@H]3C[C@H](NC(=O)c4ccccn4)C3)n2-c2ccccc2)nc1 [Example 68, N-((1r,3r)-3-(5-(5-ethoxypyridin-2-yl)-4-phenyl-4H-1,2,4-triazol-3-yl)cyclobutyl)picolinamide]	0.0052	–	–	0.065	–
O=C(N[C@H]1C[C@H](c2nnc(-c3nccs3)n2-c2ccccc2Cl)C1)c1ccccc1 [Example 43, N-((1S,3r)-3-(4-(2-chlorophenyl)-5-(thiazol-2-yl)-4H-1,2,4-triazol-3-yl)cyclobutyl)benzamide]	0.0079	0.082	–	–	–
CCOc1ccc(-c2nnc([C@H]3C[C@H](NC(=O)c4cc(C)nc5ncnn45)C3)n2-c2ccccc2F)nc1 [Example 158, N-((1S,3r)-3-(5-(5-ethoxypyridin-2-yl)-4-(2-fluorophenyl)-4H-1,2,4-triazol-3-yl)cyclobutyl)-5-methy-[1,2,4]triazolo[1,5-a]pyrimidine-7-carboxamide]	0.026	0.044	–	–	–
CCOc1ccc(-c2nnc([C@H]3C[C@H](NC(=O)c4cccc(C(C)(C)O)n4)C3)n2-c2ccccc2F)nc1 [Example 129, N-((1S,3r)-3-(5-(5-ethoxypyridin-2-yl)-4-(2-fluorophenyl)-4H-1,2,4-triazol-3-yl)cyclobutyl)-6-(2-hydroxypropan-2-yl) picolinamide]	0.21	0.649	–	–	–
CS(=O)(=O)c1ccc(-c2nnc([C@H]3C[C@H](NC(=O)c4ccc(F)cn4)C3)n2-c2ccccc2F)nc1 [Example 107, 5-fluoro-N-((1S,3r)-3-(4-(2-fluorophenyl)-5-(5-(methylsulfonyl)pyridin-2-yl)-4H-1,2,4-triazol-3-yl)cyclobutyl) picolinamide]	0.0057	0.032	–	–	–
